Results taken from patent US20220135666A1, “TREATMENT OF A DISEASE OF THE GASTROINTESTINAL TRACT WITH A S1P MODULATOR” (Progenity, Inc., priority 2017, published 2022).

Key:
[1] = Pharmacokinetic study of oral vs intra-cecal administration of tacrolimus (Example 13); set-up: species or system Yorkshire-Cross farm swine; settings: female, Yorkshire-Cross, in vivo, 0.09 mg/kg
From the text: (§1) No further randomization procedure was employed.

[2] = Tissue, plasma and GI content pharmacokinetics of tacrolimus, oral vs intra-cecal ingestible device (Example 10); set-up: species or system Yorkshire-Cross farm swine; settings: in vivo
Description: The primary objective of this study was to compare the tissue, plasma, rectal sample, and GI content pharmacokinetics of tacrolimus through oral versus intra-cecal ingestible device delivery in normal Yorkshire-Cross farm swine.
as §1
Animals in Group 1 received an ingestible device containing 0.8 mL of vehicle solution (80% alcohol, 20% HCO-60). Animals in Group 2 received orally […] liquid formulation of tacrolimus at 4 mg/0.8 mL per animal (Prograf: 5 mg/mL). Animals in Group 3 received intracecally an ingestible device containing tacrolimus at 1 mg in 0.8 mL per ingestible device. […]
Approximately 200˜400 mg of rectal content were collected, if available, with a fecal swab (Copan Diagnostics Nylon Flocked Dry Swabs, 502CS01). The fecal swab was pre-weighed and weighed after collection in the collection tube (Sterile Tube and Cap No Media, PFPM913S), and the sample weight was recorded. […]
For tissue necropsy, small intestine fluid and cecal fluid were collected separately from all the animals into two separate square plastic bottles, and stored at −20° C. The length and diameter of the cecum and the colon was measured from one animal in each group and recorded for reference. […] All samples were weighed, and the tissue sample weights were recorded. […]

C=CC[C@@H]1/C=C(\C)C[C@H](C)C[C@H](OC)[C@H]2O[C@@](O)(C(=O)C(=O)N3CCCC[C@H]3C(=O)O[C@H](/C(C)=C/[C@@H]3CC[C@@H](O)[C@H](OC)C3)[C@H](C)[C@@H](O)CC1=O)[C@H](C)C[C@@H]2OC [tacrolimus]
Ratio Tissue (mean) (ng/g)/AUG(0-12 hr) (ng · hr/mL) ([1]; pig, 12 h): 0
Trough (12 hr) ([1]; pig, 12 h): 0.568 ng/mL
Kp at 12 h ([1]; swine): 0
Ratio Tissue (mean) (ng/g)/Tough(12 hr)(ng/mL) ([1]; swine, 12 h): 0
level detected in tissue [2]: No measurable level
